According to ChEMBL document CHEMBL1201862, “PubChem BioAssay data set” (2004):
Where “and” joins values, the source holds several entries; their conditions need not be identical. Equal values may be shown once. Calls of active or inactive are those of the source. Unless noted, the rule behind the calls is not given here.

How the values were obtained:
HEK293 [1] = experiment: cells; details: Homo sapiens
HEK293 [2] = experiment: cells; details: Homo sapiens; remark: listed apart in the source
J774.A1 = experiment: Confirmation of image-based Screening Assay for Inhibitors of Phagocytosis. [Related pubchem assays (depositor defined):AID1029, AID1643]; assay type: functional, cell-based; details: Mus musculus
[3] = cytotoxicity in HEK-293T cells, dose response, cytotoxicity control for TCR NF-kB inhibitor project, luminescence, T-cell screen hits (AID 489026); assay type: functional, cell-based;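 also: cells exposed to compound about 14 hours before the viability readout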
Mu-type opioid receptor = Mu-type opioid receptor (Homo sapiens, UniProt P35372); experiment: HTS Image-Based Screen for Agonists of the MOR Receptor. [Related pubchem assays (depositor defined):AID1777, AID1785, AID1786, AID2133]; assay type: functional;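 also: imaging of beta-arrestin GFP recruitment into spots after receptor activation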
[4] = biological target: T1, Delta-type opioid receptor (Homo sapiens, UniProt P41143); experiment: HTS Image-Based Screen for Antagonists of the DOR Receptor. [Related pubchem assays (depositor defined):AID1777, AID1785, AID1786, AID2133]; assay type: functional
Estrogen receptor beta [5] = biological target: T2, Estrogen receptor beta (Homo sapiens, UniProt Q92731); experiment: ERβ–SRC-3 coactivator interaction inhibitors, confirmation, orthogonal assay, biochemical, ELISA, streptavidin-HRP readout (AID 1060)
Estrogen receptor beta [6] = biological target: T2, Estrogen receptor beta
[7] = biological target: T3, Kappa-type opioid receptor (Homo sapiens, UniProt P41145); assay type: functional
[8] = biological target: T1, Delta-type opioid receptor; experiment: HTS Image-Based Screen for Agonists of the DOR Receptor. [Related pubchem assays (depositor defined):AID1777, AID1786, AID2133]; assay type: functional
Estrogen receptor = Estrogen receptor (Homo sapiens, UniProt P03372);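 also: potency for inhibiting coactivator peptide recruitment to the receptor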
[9] = biological target: T3, Kappa-type opioid receptor; assay type: functional; remark: listed apart in the source
[10] = growth suppression of beta-catenin-knockout colon cells, dose response, cell-based, HCT116, human colon tumor (AID 1045); assay type: functional;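 also: HCT116 colon tumor cells with beta catenin knocked out; cells exposed to compound for 60 hours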
[11] = CCRF-CEM leukemia cell viability loss, dose response, HRAS target identification, CellTiter-Glo ATP luminescence, 8/24/48 h, dry powder (AID 720607); assay type: functional, cell-based
[12] = HeLa cell viability over time, late-stage follow-up, mechanism study for HRAS target identification, CellTiter-Glo ATP luminescence, 8-48 h, dry powder (AID 720609); assay type: functional, cell-based
BJ = experiment: cytotoxicity toward Ras-transformed BJeLR fibroblasts, dose response, cell-based, alamar blue fluorescence, cherrypicked samples (AID 2631); assay type: functional; details: Homo sapiens;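 also: confirmatory dose-response assay in RAS-dependent BJ fibroblasts engineered with TERT, LT and ST, with cytotoxicity read by fluorescence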
[13] = non-specific cell cytotoxicity, dose response, cytotoxicity control for PAX8 inhibitor project, plate reader, dry powder samples (AID 743021); assay type: functional, cell-based
[14] = nonselective inhibitors of cellular cAMP signaling, dose response, counter-screen for MC4R biased antagonist project, cell-based, TR-FRET cAMP detection (AID 602305); assay type: functional;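 also: U2OS cells stimulated with forskolin near its EC80 as the cAMP inducer; potency is for inhibition of forskolin-stimulated cAMP signaling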
Fatty acid synthase [15] = biological target: T4, Fatty acid synthase (Homo sapiens, UniProt P49327); experiment: FAS thioesterase domain inhibitors, dose response, biochemical, kinetic fluorescence intensity (AID 624326); assay type: functional;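 also: rate of fluorescence rise from hydrolysis of a fluorogenic O-methyl fluorescein ester substrate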
[16] = C2C12 myoblast ATP-based viability loss, dose response, cytotoxicity control for HRAS target identification, cell-based, CellTiter-Glo ATP luminescence, 8/24/48 h, dry powder (AID 720603); assay type: functional
[17] = HUVEC endothelial cell viability loss, dose response, cytotoxicity control for HRAS target identification, CellTiter-Glo ATP luminescence, 8/24/48 h, dry powder (AID 720604); assay type: functional, cell-based
Fatty acid synthase [18] = biological target: T4, Fatty acid synthase; experiment: FAS thioesterase domain inhibitors, dose response, biochemical, endpoint fluorescence intensity, uHTS hits (AID 624327); assay type: functional;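 also: fluorescence from hydrolysis of an O-methyl fluorescein acyl ester substrate by the enzyme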
[19] = cytotoxicity in BJeH fibroblasts, dose response, counter-screen for Ras selective lethality project, BJeH cells, dry powder (AID 493054); assay type: functional, cell-based
Paired box protein Pax-8 = Paired box protein Pax-8 (Homo sapiens, UniProt Q06710); experiment: inhibitors of PAX8-driven TPO luciferase reporter, dose response, RMG-I cells, cherry-pick (AID 687027); assay type: functional, cell-based;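 also: luciferase reporter driven by Pax8 target thyroperoxidase promoter measured by SteadyGlo luminescence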
[20] = viability loss in BJeLR (HRASV12) cells, primary screen, Ras selective lethality project, cell-based, Alamar Blue, dry powder (AID 493045); assay type: functional
[21] = growth suppression of PTEN-null colon cells, dose response, cell-based, HCT116 PTEN knockout (AID 1047); assay type: functional;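 also: HCT116 colon tumor cells with PTEN knocked out; cells exposed to compound for 60 hours before readout; potency for loss of cell viability measured by luminescence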
[22] = U-251 glioblastoma cell viability loss, late-stage follow-up, mechanism study for HRAS target identification, CellTiter-Glo ATP luminescence, several timepoints, dry powder (AID 720616); assay type: functional, cell-based
[23] = HT-29 colorectal cell cytotoxicity over time, dose response, HRas target identification project, CellTiter-Glo, multiple timepoints, dry powder (AID 720598); assay type: functional, cell-based
Protein RecA = biological target: T5, Protein RecA (Mycobacterium tuberculosis, UniProt P9WHJ3); experiment: Fluorescence Cell-Free Homogeneous Dose Retest to Identify Inhibitors of RecA-Intein Splicing Activity. [Related pubchem assays (depositor defined):AID2097, AID2223, AID489010, AID492950]; assay type: functional
T5 sequence (P9WHJ3 whole entry): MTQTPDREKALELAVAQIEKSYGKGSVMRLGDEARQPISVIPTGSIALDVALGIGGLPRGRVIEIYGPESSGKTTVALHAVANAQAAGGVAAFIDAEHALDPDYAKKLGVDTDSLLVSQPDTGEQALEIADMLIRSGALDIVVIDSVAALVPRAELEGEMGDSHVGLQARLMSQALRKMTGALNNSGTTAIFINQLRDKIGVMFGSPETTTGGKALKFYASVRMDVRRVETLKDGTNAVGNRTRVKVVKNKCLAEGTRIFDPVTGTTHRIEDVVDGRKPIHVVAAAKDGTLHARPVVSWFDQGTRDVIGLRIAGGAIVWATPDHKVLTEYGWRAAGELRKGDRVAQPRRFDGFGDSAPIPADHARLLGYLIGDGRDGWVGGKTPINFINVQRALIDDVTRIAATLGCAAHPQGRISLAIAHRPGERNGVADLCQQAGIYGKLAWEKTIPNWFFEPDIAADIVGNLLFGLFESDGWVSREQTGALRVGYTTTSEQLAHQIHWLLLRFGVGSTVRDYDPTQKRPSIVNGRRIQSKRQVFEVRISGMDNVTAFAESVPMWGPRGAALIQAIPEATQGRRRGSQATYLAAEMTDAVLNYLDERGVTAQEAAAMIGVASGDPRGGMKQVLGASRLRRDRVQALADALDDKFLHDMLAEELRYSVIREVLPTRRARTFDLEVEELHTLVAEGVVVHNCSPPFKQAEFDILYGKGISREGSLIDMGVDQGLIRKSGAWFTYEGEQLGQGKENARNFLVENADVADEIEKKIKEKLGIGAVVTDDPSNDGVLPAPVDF

[24] = biological target: T6, Replicative DNA helicase DnaB (Mycobacterium tuberculosis, UniProt P9WMR3); experiment: DnaB intein splicing inhibitors, dose response, biochemical, cell-free fluorescence (AID 449749); assay type: functional
T6 sequence (P9WMR3 whole entry): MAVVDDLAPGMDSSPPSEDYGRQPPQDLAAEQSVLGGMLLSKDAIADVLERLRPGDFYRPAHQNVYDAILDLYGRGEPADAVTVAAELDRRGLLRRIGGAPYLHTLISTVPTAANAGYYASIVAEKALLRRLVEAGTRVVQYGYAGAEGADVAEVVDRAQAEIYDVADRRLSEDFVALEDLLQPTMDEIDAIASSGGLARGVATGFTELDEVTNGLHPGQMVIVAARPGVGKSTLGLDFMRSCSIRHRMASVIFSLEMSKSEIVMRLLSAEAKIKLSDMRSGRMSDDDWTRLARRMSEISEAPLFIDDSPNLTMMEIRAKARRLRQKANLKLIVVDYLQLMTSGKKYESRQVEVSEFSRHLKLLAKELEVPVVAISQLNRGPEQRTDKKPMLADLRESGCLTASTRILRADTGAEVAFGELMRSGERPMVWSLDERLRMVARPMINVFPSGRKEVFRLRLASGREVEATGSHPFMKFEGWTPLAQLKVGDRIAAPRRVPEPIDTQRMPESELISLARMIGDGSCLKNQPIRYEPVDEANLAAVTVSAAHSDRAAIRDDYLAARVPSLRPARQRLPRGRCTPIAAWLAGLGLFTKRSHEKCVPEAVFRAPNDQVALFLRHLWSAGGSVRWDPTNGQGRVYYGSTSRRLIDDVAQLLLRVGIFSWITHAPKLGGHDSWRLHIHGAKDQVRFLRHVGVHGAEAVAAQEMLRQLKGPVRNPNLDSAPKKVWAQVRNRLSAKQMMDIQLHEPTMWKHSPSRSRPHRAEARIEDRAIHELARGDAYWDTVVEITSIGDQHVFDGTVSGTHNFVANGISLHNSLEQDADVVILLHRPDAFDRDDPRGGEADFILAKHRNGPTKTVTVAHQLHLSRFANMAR

INS1 = experiment: beta cell apoptosis inhibitors, cytokine rescue, dose response, luminescence, retest (AID 449756); assay type: functional, cell-based; details: Rattus norvegicus;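 also: cell death triggered by IL-1 beta plus TNF-alpha plus IFN-gamma mixture; protective hits raise ATP signal compared with cytokine alone wells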
[25] = cytotoxicity in BJeHLT fibroblasts, dose response, counter-screen for Ras selective lethality project, BJeHLT cells, dry powder (AID 493052); assay type: functional, cell-based; details: Homo sapiens
[26] = SNB-19 glioblastoma cell viability over time, late-stage follow-up, mechanism study for HRAS target identification, CellTiter-Glo ATP luminescence, 8-48 h, dry powder (AID 720611); assay type: functional, cell-based
[27] = SR lymphoma cell viability over time, late-stage follow-up, mechanism study for HRAS target identification, CellTiter-Glo ATP luminescence, 8-48 h, dry powder (AID 720608); assay type: functional, cell-based
[28] = LOX IMVI melanoma cell viability loss, dose response, HRAS target identification, CellTiter-Glo ATP luminescence, 8/24/48 h, dry powder (AID 720602); assay type: functional, cell-based
Melanocortin receptor 4 = Melanocortin receptor 4 (Homo sapiens, UniProt P32245); experiment: MC4R antagonist potency on cAMP, dose response, cell-based, TR-FRET, biased antagonists (AID 602298); assay type: functional;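 also: antagonist potency against agonist-stimulated cAMP production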
[29] = viability loss in HRASV12 DRD fibroblasts, dose response, cell-based, DRD BJ fibroblasts, dry powder (AID 493049); assay type: functional
[30] = U-251 glioblastoma cell viability loss, dose response, HRAS target identification, Alamar Blue fluorescence, 8/24/48 h, dry powder (AID 720605); assay type: functional, cell-based
[31] = biological target: G-protein coupled receptor 35 (Homo sapiens, UniProt Q9HC97); experiment: SAR analysis of Antagonists of the GPR35 Receptor using an Image-Based Assay - Set 5. [Related pubchem assays (depositor defined):AID2058, AID2079]; assay type: functional
[32] = biological target: G-protein coupled receptor 55 (Homo sapiens, UniProt Q9Y2T6); experiment: SAR Analysis of Selective Antagonists of GPR55 using an Image-Based Assay - Set 3. [Related pubchem assays (depositor defined):AID2058, AID2079]; assay type: functional
[33] = biological target: DNA dC->dU-editing enzyme APOBEC-3A (Homo sapiens, UniProt P31941); experiment: APOBEC3A DNA deaminase inhibitors, dose response, biochemical (AID 504722); assay type: functional
[34] = biological target: DNA dC->dU-editing enzyme APOBEC-3G (Homo sapiens, UniProt Q9HC16); experiment: Dose Response confirmation of small molecule APOBEC3G DNA Deaminase Inhibitors via a fluorescence-based single-stranded DNA deaminase assay. [Related pubchem assays (depositor defined):AID493012, AID493028]; assay type: functional
Troponin, cardiac muscle = Troponin, cardiac muscle (Homo sapiens, UniProt P19429+P45379+P63316); experiment: Fluorescence-based biochemical high throughput dose response assay for activators of the calcium sensitivity of cardiac Regulated Thin Filaments (RTF). [Related pubchem assays (depositor defined):AID493008, AID493018, AID504382, AID504383]; assay type: protein-complex assay
Large T antigen = Large T antigen (Simian virus 40, UniProt P03070); assay type: functional, Betapolyomavirus macacae;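 also: Confirmatory-stage PubChem screen for compounds that inhibit SV40 T antigen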

Cc1ccc(C(=O)Nc2ncc(Cc3ccc(SC(F)F)cc3)s2)cc1
EC50 (HEK293 [1]): > 59.7 µM (inactive) | EC50 (HEK293 [2]): > 59.7 µM (inactive) | IC50 (J774.A1): 1.75 µM (active) | IC50 [3]: > 80 µM (inactive)

N#Cc1ccc(-c2cccnc2)nc1SCC(=O)Nc1sc2c(c1C#N)CCC2
EC50 (Mu-type opioid receptor): > 32 µM (inactive) | IC50 [4]: > 32 µM (inactive) | IC50 (Estrogen receptor beta [5]): 3.69 µM (not active) and 149 nM (not active) | IC50 (Estrogen receptor beta [6]): > 50 µM (not active) | EC50 [7]: > 35 µM | EC50 [8]: > 32 µM (inactive) | IC50 (Estrogen receptor): 15 µM (active) | EC50 [9]: 16 µM

COc1ccc(N(C(=O)CCl)C(C(=O)NCCc2ccccc2)c2cccs2)cc1Cl (centres undefined)
EC50 [10]: 765 nM (active) | AC50 [11]: 133 nM (active) | AC50 [12]: 582 nM (active) | EC50 (BJ): 167 nM (active) | AC50 [13]: 2.16 µM (active) | IC50 [14]: > 64.6 µM (inactive) | IC50 (Fatty acid synthase [15]): 10.6 µM (active) | AC50 [16]: 6.07 µM (active) | AC50 [17]: 12 µM (active) | IC50 (Fatty acid synthase [18]): 10.2 µM (active) | AC50 [19]: 760 nM (active) | AC50 (Paired box protein Pax-8): 323 nM (active) | AC50 [20]: 249 nM (active) | EC50 [21]: 1.48 µM (active) | AC50 [22]: 941 nM (active) | AC50 [23]: 296 nM (active) | EC50 (Protein RecA): 240 nM (active) | AC50 [24]: 1.82 µM (active) | AC50 (INS1): 2.82 µM (active) | AC50 [25]: 847 nM (active) | AC50 [26]: 1.18 µM (active) | AC50 [27]: 69.4 nM (active) | AC50 [28]: 56.3 nM (active) | IC50 (Melanocortin receptor 4): > 64.6 µM (inactive) | AC50 [29]: 232 nM (active) | AC50 [30]: 57.2 nM (active)

COc1ccc(-c2n[nH]cc2/C=N/NC(=S)NC(C)(C)C)cc1
IC50 [31]: > 32 µM (inactive) | IC50 [32]: 16.4 µM (inactive)

Cc1cccc(/C=N/n2c(S)nnc2-c2ccncc2)c1
IC50 [33]: > 100 µM (inactive) | IC50 [34]: 2.62 µM (active) | EC50 (Troponin, cardiac muscle): > 71.5 µM (inactive) | IC50 (Large T antigen): 43.7 µM (active)
